Assay results from PubChem BioAssay (NCI).
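Test compounds were applied to cells in 96-well plates for 48 hours at 5 doses. GI50: concentration for 50% inhibition of growth. At the TGI there is no net growth.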 Activity calls are given as the source filed them. Cut-off read from the data, not from the text of the source: active = GI50 below about 0.43 µM; inactive = the rest.

Experiments:
Experiment in all cases: NCI anticancer screen, dose series, 48 h
NCI-H226 lung = system: NCI-H226 lung
NCI-H460 lung = system: NCI-H460 lung
HCC-2998 colon = system: HCC-2998 colon
HOP-62 NSCLC = system: HOP-62 NSCLC
OVCAR-3 ovarian = system: OVCAR-3 ovarian
A549 NSCLC = system: A549 NSCLC
T-47D breast = system: T-47D breast
SK-MEL-5 melanoma = system: SK-MEL-5 melanoma
MDA-MB-231 breast = system: MDA-MB-231 breast

## COC(=O)CCC(=O)C(=O)OC
NCI-H226 lung
  GI50: 17300 µM
  TGI: 65100 µM
NCI-H460 lung
  GI50: 34100 µM
HCC-2998 colon
  GI50: 25300 µM
  TGI: 73000 µM
HOP-62 NSCLC
  GI50: 23700 µM
OVCAR-3 ovarian
  GI50: 28600 µM
A549 NSCLC
  GI50: 52900 µM
T-47D breast
  outcome: inactive
SK-MEL-5 melanoma
  GI50: 94300 µM
MDA-MB-231 breast
  GI50: 39500 µM

## CC12CCC3C(CCC4Cc5[nH]c6ccccc6c5CC43C)C1CCC2O (stereo unspecified)
NCI-H226 lung
  GI50: 6.08 µM
  TGI: > 100 µM
NCI-H460 lung
  GI50: 0.609 µM
  TGI: > 100 µM
HCC-2998 colon
  GI50: 0.633 µM
  TGI: 2.54 µM
HOP-62 NSCLC
  GI50: 0.348 µM
  TGI: 2.57 µM
OVCAR-3 ovarian
  GI50: 0.26 µM
  TGI: 0.719 µM
A549 NSCLC
  GI50: 2.63 µM
  TGI: > 100 µM
T-47D breast
  GI50: 2.3 µM
  TGI: > 100 µM
SK-MEL-5 melanoma
  GI50: 0.75 µM
  TGI: > 100 µM
MDA-MB-231 breast
  GI50: 2.09 µM
  TGI: 7.16 µM

## CCSCC1CC(O)(c2ccccc2)C(c2ccccc2)C(c2ccc(Cl)cc2)O1 (stereo unspecified)
NCI-H226 lung
  GI50: 1.74 µM
  TGI: 3.97 µM
NCI-H460 lung
  GI50: 1.42 µM
  TGI: 3.44 µM
HCC-2998 colon
  GI50: 1.82 µM
  TGI: 3.58 µM
HOP-62 NSCLC
  GI50: 1.85 µM
  TGI: 3.6 µM
OVCAR-3 ovarian
  GI50: 1.74 µM
  TGI: 4.2 µM
A549 NSCLC
  GI50: 1.61 µM
  TGI: 3.63 µM
T-47D breast
  GI50: 1.42 µM
  TGI: 4.57 µM
SK-MEL-5 melanoma
  GI50: 1.64 µM
  TGI: 3.01 µM
MDA-MB-231 breast
  GI50: 1.82 µM
  TGI: 4.41 µM

## O=C1c2ccccc2-c2c1c1ccccc1c(=O)n2CCCCNCCCn1c2c(c3ccccc3c1=O)C(=O)c1ccccc1-2
NCI-H226 lung
  GI50: 0.375 µM
  TGI: 3.11 µM
NCI-H460 lung
  GI50: 0.0484 µM
  TGI: 0.687 µM
HCC-2998 colon
  GI50: 0.698 µM
  TGI: 1.4 µM
HOP-62 NSCLC
  GI50: 0.13 µM
  TGI: 1.42 µM
OVCAR-3 ovarian
  GI50: 0.509 µM
  TGI: 2.06 µM
A549 NSCLC
  GI50: 0.508 µM
  TGI: 2.9 µM
T-47D breast
  GI50: 1.32 µM
  TGI: 4.86 µM
SK-MEL-5 melanoma
  GI50: 0.529 µM
  TGI: 1.49 µM
MDA-MB-231 breast
  GI50: 0.319 µM
  TGI: 1.34 µM

## CCc1nc(N)nc(N)c1-c1ccc(NCCN)c([N+](=O)[O-])c1
NCI-H226 lung
  TGI: > 100 µM
NCI-H460 lung
  TGI: > 100 µM
HCC-2998 colon
  TGI: 50.7 µM
HOP-62 NSCLC
  TGI: 75.8 µM
OVCAR-3 ovarian
  TGI: > 100 µM
A549 NSCLC
  TGI: > 100 µM
T-47D breast
  TGI: > 100 µM
SK-MEL-5 melanoma
  TGI: 40 µM
MDA-MB-231 breast
  TGI: > 100 µM

## Cc1cc2nc(C(C)C(=O)c3ccc(Cl)cc3)c(=O)[nH]c2cc1C (stereo unspecified)
NCI-H226 lung
  TGI: 95.1 µM
NCI-H460 lung
  TGI: > 100 µM
HCC-2998 colon
  TGI: 33.1 µM
HOP-62 NSCLC
  TGI: > 100 µM
OVCAR-3 ovarian
  TGI: > 100 µM
A549 NSCLC
  TGI: > 100 µM
T-47D breast
  TGI: > 100 µM
SK-MEL-5 melanoma
  TGI: > 100 µM
MDA-MB-231 breast
  TGI: > 100 µM

## O=[N+]([O-])c1ccc(S(=O)(=O)Cc2ccccc2)c([N+](=O)[O-])c1
NCI-H226 lung
  TGI: 43.3 µM
NCI-H460 lung
  TGI: 9.43 µM
HCC-2998 colon
  TGI: 19.7 µM
HOP-62 NSCLC
  TGI: 9.13 µM
OVCAR-3 ovarian
  TGI: 2.57 µM
A549 NSCLC
  TGI: 33.3 µM
T-47D breast
  TGI: 4.48 µM
SK-MEL-5 melanoma
  TGI: 4.9 µM
MDA-MB-231 breast
  TGI: 5.99 µM

## COc1ccc2oc(=O)cc(C(c3ccc[nH]3)c3ccc[nH]3)c2c1
NCI-H226 lung
  GI50: 0.146 µM
  TGI: 24.4 µM
NCI-H460 lung
  GI50: 0.107 µM
  TGI: 10.3 µM
HCC-2998 colon
  GI50: 0.0973 µM
  TGI: 2.15 µM
HOP-62 NSCLC
  GI50: 0.107 µM
  TGI: 11.7 µM
OVCAR-3 ovarian
  GI50: 0.0803 µM
  TGI: 0.146 µM
A549 NSCLC
  GI50: 0.118 µM
  TGI: 10.8 µM
T-47D breast
  GI50: 0.118 µM
  TGI: 26.6 µM
SK-MEL-5 melanoma
  GI50: 0.08 µM
  TGI: 0.141 µM
MDA-MB-231 breast
  GI50: 0.109 µM
  TGI: 6.05 µM

## COc1ccc(C(=O)c2cc(OC)c(OC)c(OC)c2)cc1
NCI-H226 lung
  TGI: 37.9 µM
NCI-H460 lung
  TGI: 17.2 µM
HCC-2998 colon
  TGI: > 14 µM
HOP-62 NSCLC
  TGI: > 100 µM
OVCAR-3 ovarian
  TGI: 0.283 µM
A549 NSCLC
  TGI: > 100 µM
T-47D breast
  TGI: 66.7 µM
SK-MEL-5 melanoma
  TGI: 26.3 µM
MDA-MB-231 breast
  TGI: > 100 µM

## COc1c(C=O)c2c(c(OC)c1OC)-c1ccc(OC)c(=O)cc1[C@@H](NC(C)=O)CC2
NCI-H226 lung
  TGI: 4.17 µM
NCI-H460 lung
  TGI: 18.7 µM
HCC-2998 colon
  TGI: 34.4 µM
HOP-62 NSCLC
  TGI: > 100 µM
OVCAR-3 ovarian
  TGI: 1.09 µM
A549 NSCLC
  TGI: > 100 µM
T-47D breast
  TGI: > 100 µM
SK-MEL-5 melanoma
  TGI: 0.272 µM
MDA-MB-231 breast
  TGI: > 100 µM

## O=C(NC1CCN(Cc2ccccc2)CC1)c1cc(-c2ccncc2)nc2ccc(Cl)cc12
NCI-H226 lung
  GI50: 30.2 µM
  TGI: > 100 µM
NCI-H460 lung
  GI50: 11.4 µM
  TGI: 33.7 µM
HCC-2998 colon
  GI50: 21.6 µM
  TGI: > 91.1 µM
HOP-62 NSCLC
  GI50: 14.5 µM
  TGI: > 100 µM
OVCAR-3 ovarian
  GI50: 15.4 µM
  TGI: 40.1 µM
A549 NSCLC
  GI50: 10.6 µM
  TGI: 54.2 µM
T-47D breast
  GI50: 13.3 µM
  TGI: 49.1 µM
SK-MEL-5 melanoma
  GI50: 9.07 µM
  TGI: 21.7 µM
MDA-MB-231 breast
  GI50: 4.5 µM
  TGI: > 59.9 µM

## CCNC(=O)[C@@H]1CCCN2C(=O)CC[C@H](NC(=O)[C@H](Cc3ccc(OP(=O)(O)O)cc3)NC(C)=O)C(=O)N12
NCI-H226 lung
  GI50: > 25 µM
  TGI: > 25 µM
NCI-H460 lung
  GI50: > 25 µM
  TGI: > 25 µM
HCC-2998 colon
  GI50: > 25 µM
  TGI: > 25 µM
HOP-62 NSCLC
  GI50: > 25 µM
  TGI: > 25 µM
OVCAR-3 ovarian
  GI50: > 25 µM
  TGI: > 25 µM
A549 NSCLC
  GI50: > 25 µM
  TGI: > 25 µM
T-47D breast
  GI50: > 25 µM
  TGI: > 25 µM
SK-MEL-5 melanoma
  GI50: > 25 µM
  TGI: > 25 µM
MDA-MB-231 breast
  GI50: > 25 µM
  TGI: > 25 µM

## COc1cccc2c1C(=O)C=CC2=O
NCI-H226 lung
  TGI: 38.3 µM
NCI-H460 lung
  TGI: 32.6 µM
HCC-2998 colon
  TGI: 29.3 µM
HOP-62 NSCLC
  TGI: 34.4 µM
OVCAR-3 ovarian
  TGI: 3.51 µM
A549 NSCLC
  TGI: 40.4 µM
T-47D breast
  TGI: 5.04 µM
SK-MEL-5 melanoma
  TGI: 30.3 µM
MDA-MB-231 breast
  TGI: 4.76 µM

## F
NCI-H226 lung
  GI50: > 6870 µM
  TGI: > 6870 µM
NCI-H460 lung
  GI50: 5410 µM
  TGI: > 6870 µM
HCC-2998 colon
  GI50: 2610 µM
  TGI: 6190 µM
HOP-62 NSCLC
  GI50: 2560 µM
  TGI: > 6870 µM
OVCAR-3 ovarian
  GI50: > 6870 µM
  TGI: > 6870 µM
A549 NSCLC
  GI50: 2730 µM
  TGI: > 6870 µM
T-47D breast
  GI50: 2100 µM
  TGI: 5670 µM
SK-MEL-5 melanoma
  GI50: 1420 µM
  TGI: 2700 µM
MDA-MB-231 breast
  GI50: 2660 µM
  TGI: > 6870 µM

## C=C1C(=O)O[C@H]2[C@H]1CC/C(CNC(=O)Cc1c[nH]c3ccccc13)=C\CC[C@@]1(C)O[C@@H]21
NCI-H226 lung
  GI50: 2.42 µM
  TGI: 7.81 µM
NCI-H460 lung
  GI50: 12 µM
  TGI: 29.5 µM
HCC-2998 colon
  GI50: 4 µM
  TGI: 15.5 µM
HOP-62 NSCLC
  GI50: 5.06 µM
  TGI: 19.7 µM
OVCAR-3 ovarian
  GI50: 0.386 µM
  TGI: 1.44 µM
A549 NSCLC
  GI50: 14.9 µM
  TGI: 33.3 µM
T-47D breast
  GI50: 1.07 µM
  TGI: 8.16 µM
SK-MEL-5 melanoma
  GI50: 7.32 µM
  TGI: 20.3 µM
MDA-MB-231 breast
  GI50: 3.87 µM
  TGI: 17.5 µM

## CN(Cc1cnc2nc(N)nc(N)c2n1)c1ccc(C(=O)NC(CCC(=O)O)C(=O)O)cc1C(F)(F)F (stereo unspecified)
NCI-H226 lung
  TGI: > 89 µM
NCI-H460 lung
  TGI: > 100 µM
HCC-2998 colon
  TGI: > 100 µM
HOP-62 NSCLC
  TGI: > 100 µM
OVCAR-3 ovarian
  TGI: > 100 µM
A549 NSCLC
  TGI: > 100 µM
T-47D breast
  TGI: > 100 µM
SK-MEL-5 melanoma
  TGI: > 100 µM
MDA-MB-231 breast
  TGI: > 100 µM

## Cc1ccc2c(c1)C(C)Cc1c(ncnc1-n1cnc3ccccc31)N2C (stereo unspecified)
NCI-H226 lung
  GI50: 3.5 µM
  TGI: 27.4 µM
NCI-H460 lung
  GI50: 0.38 µM
  TGI: 12 µM
HCC-2998 colon
  GI50: 1.24 µM
  TGI: 13.6 µM
HOP-62 NSCLC
  GI50: 0.433 µM
  TGI: 16 µM
OVCAR-3 ovarian
  GI50: 0.313 µM
  TGI: 10.8 µM
A549 NSCLC
  GI50: 0.973 µM
  TGI: 17.3 µM
T-47D breast
  GI50: 0.601 µM
  TGI: 32.2 µM
SK-MEL-5 melanoma
  GI50: 0.434 µM
  TGI: 10.2 µM
MDA-MB-231 breast
  GI50: 0.809 µM
  TGI: 18.2 µM
